This is an account of results in patent US10053468B2, “Heterocyclic compound” (TAKEDA PHARMACEUTICAL COMPANY LIMITED, priority 2013, dated 2018).

Where two headings read alike, the source gives them in different places.

For test [1], the target named is T1, RORγt (Homo sapiens, UniProt P51449).
T1 sequence (P51449 1-497 isoform P51449-2): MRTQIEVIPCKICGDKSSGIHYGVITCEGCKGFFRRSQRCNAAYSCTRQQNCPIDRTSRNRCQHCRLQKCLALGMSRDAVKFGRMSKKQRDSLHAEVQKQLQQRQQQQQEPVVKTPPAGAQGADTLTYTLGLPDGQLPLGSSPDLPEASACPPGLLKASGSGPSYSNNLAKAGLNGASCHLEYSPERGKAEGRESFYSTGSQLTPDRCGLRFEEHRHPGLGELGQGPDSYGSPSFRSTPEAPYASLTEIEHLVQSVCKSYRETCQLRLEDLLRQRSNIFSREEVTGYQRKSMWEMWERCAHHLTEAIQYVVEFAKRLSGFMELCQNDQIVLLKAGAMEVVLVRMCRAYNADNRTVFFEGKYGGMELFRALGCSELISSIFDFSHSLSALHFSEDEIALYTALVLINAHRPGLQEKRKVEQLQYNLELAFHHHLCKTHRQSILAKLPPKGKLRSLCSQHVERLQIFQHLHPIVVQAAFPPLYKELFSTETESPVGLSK
The experiment in a line: Cofactor recruitment test (Alpha Screen, biotinylated SRC-1 peptide). Type of test: biochemical. To be noted: read-out: Signal value inhibitory rate at test compound 1 μM (%). As to the method: Cofactor Recruitment Test
Cofactor recruitment test was performed by Alpha Screen (Histidine Detection Kit, PerkinElmer) method. First, a test compound was diluted with an assay buffer (50 mM Tris-HCl (pH 7.5), 50 mM KCl, 1 mM DTT, 0.1% BSA) and added to a 384 well plate by 5 μL. […] The mixture was stood in a dark place for 1 hr, and the signal value was measured by Envision (PerkinElmer).

Test [2] deals with T1, RORγt. Nature of the test: Jurkat reporter test (human IL-17 ROR response element luciferase, RORγt vector). Type of test: cell-based. As to conditions: read-out: Luminescence level inhibitory rate at test compound 3 μM (%). The method in brief:
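Jurkat cells were electroporated (1350 V, 10 ms, 3 pulses) with reporter constructs, then cultured overnight with compound in RPMI containing 10% lipid-reduced FCS, 10 mM HEPES pH 7.5 and 5 μM lovastatin. Luciferase was quantified by Bright-Glo luminescence after 10 min at room temperature.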

Test [3] has as its target T1, RORγt. Nature of the test: RORγt binding test using fluorescent-labeled cholesterol (TR-FRET). To be noted: read-out: Binding inhibitory rate of fluorescent-labeled cholesterol to RORγt at test compound 1 μM (%). The method in brief:
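TR-FRET displacement with His-tagged RORγt, BODIPY-cholesterol and Tb-anti-His antibody in Tris-HCl pH 7.5, 100 mM NaCl, 1 mM DTT, 0.1% BSA. Compound, RORγt and labelled cholesterol were incubated 20 min at RT, then antibody was added for another 20 min.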
(TR-FRET usually uses a lanthanide donor and a delayed reading to cut background.)

Test [4] has as its target T1, RORγt. Nature of the test: RORγt binding test using fluorescent-labeled synthetic ligand (TR-FRET). As to conditions: read-out: Binding inhibitory rate of fluorescent-labeled synthetic ligand to RORγt at test compound 1 μM (%). On the procedure: RORγt Binding Test Using Fluorescent-labeled Synthetic Ligand
The binding activity of the test compound to RORγt was measured by a time resolved fluorescence resonance energy transfer method (TR-FRET) utilizing histidine-tagged RORγt, fluorescent-labeled synthetic ligand, and terbium-labeled anti-histidine tag antibody (Invitrogen). First, a test compound diluted with an assay buffer (20 mM Tris-HCl (pH 7.5), 100 mM NaCl, 1 mM DTT, 0.1% BSA) was added to a 384 well plate by 3 μL. Then, RORγt diluted with an assay buffer to 240 nM was added by 3 μL, after which fluorescent-labeled synthetic ligand diluted with the assay buffer to 12 μM was added by 3 μL, and the mixture was stood at room temperature for 20 min. Thereafter, a terbium-labeled anti-histidine tag antibody diluted with the assay buffer to 8 nM was added by 3 μL. The mixture was stood at room temperature for 20 min, and fluorescence intensity (excitation wavelength 320 nm, fluorescence wavelength 520 nm, delay time 100 microseconds) was measured by Envision (PerkinElmer).

Setting [5] is: test compound 3 μM, Jurkat cells.

Consider `CCOc1ccc2c(c1)CCN(C(=O)c1cc(O)no1)[C@H]2C(=O)Nc1cc(F)c(C(C)(C)COCC(F)F)c(F)c1` [Example 154, (1R)-N-(4-(1-(2,2-difluoroethoxy)-2-methylpropan-2-yl)-3,5-difluorophenyl)-6-ethoxy-2-((3-hydroxy-1,2-oxazol-5-yl)carbonyl)-1,2,3,4-tetrahydroisoquinoline-1-carboxamide], for which the values for the inhibition at 1 µM at RORγt [1], at RORγt [3] and at RORγt [4] were 85%, 101% and 102%, respectively. In addition, the inhibition at 3 µM at RORγt [2] (setting [5]) is 98%.

With `CCOc1ccc2c(n1)CCN(C(=O)Cc1cc(O)no1)[C@H]2C(=O)Nc1ccc([Si](C)(C)C)c(F)c1` [Example 151, (5R)-2-ethoxy-N-(3-fluoro-4-(trimethylsilyl)phenyl)-6-((3-hydroxy-1,2-oxazol-5-yl)acetyl)-5,6,7,8-tetrahydro-1,6-naphthyridine-5-carboxamide], the inhibition at 1 µM at RORγt [1] amounted to 99%; at RORγt [3] it was 99%; on RORγt [4], 102%. Moreover, the inhibition at 3 µM at RORγt [2] (Jurkat) was 102%.

Consider `COc1ccc2c(c1)OCCN(C(=O)Cc1cc(O)no1)[C@H]2C(=O)Nc1cc(F)c([Si](C)(C)C)c(F)c1` [Example 56, (5R)-N-(3,5-difluoro-4-(trimethylsilyl)phenyl)-4-((3-hydroxy-1,2-oxazol-5-yl)acetyl)-8-methoxy-2,3,4,5-tetrahydro-1,4-benzoxazepine-5-carboxamide], for which the inhibition at 1 µM at RORγt [1] stood at 61.3%; on RORγt [3], 101%; at RORγt [4] it was 102%. In addition, the inhibition at 3 µM at RORγt [2] (Jurkat) stood at 99.9%.

Turning to `COCc1ccc2c(n1)CCN(C(=O)c1cc(O)no1)[C@H]2C(=O)Nc1cc(F)c([Si](C)(C)C)c(F)c1` [Example 136, (5R)-N-(3,5-difluoro-4-(trimethylsilyl)phenyl)-6-((3-hydroxy-1,2-oxazol-5-yl)carbonyl)-2-(methoxymethyl)-5,6,7,8-tetrahydro-1,6-naphthyridine-5-carboxamide], the inhibition at 1 µM came to 97% on RORγt [1], 100% on RORγt [3] and 102% at RORγt [4]. Besides, on RORγt [2] (Jurkat), the inhibition at 3 µM turned out to be 103%.

Regarding `CCOc1ccc2c(c1)CCN(C(=O)NCCC(=O)O)[C@H]2C(=O)Nc1cc(F)c([Si](C)(C)C)c(F)c1` [Example 227, N-(((1R)-1-((3,5-difluoro-4-(trimethylsilyl)phenyl)carbamoyl)-6-ethoxy-3,4-dihydroisoquinolin-2(1H)-yl)carbonyl)-beta-alanine], the inhibition at 1 µM is 95% on RORγt [1] and 102% at RORγt [4]. For the same compound, at RORγt [2] (Jurkat), the inhibition at 3 µM is 101%.

For `CCOc1ccc2c(c1)CCN(C(=O)CCCC(=O)O)[C@H]2C(=O)Nc1ccc([Si](C)(C)C)c(F)c1` [Example 183, 5-((1R)-6-ethoxy-1-((3-fluoro-4-(trimethylsilyl)phenyl)carbamoyl)-3,4-dihydroisoquinolin-2 (1H)-yl)-5-oxopentanoic acid], the figures for the inhibition at 1 µM on RORγt [1] and at RORγt [4] were 91% and 101%, respectively. Besides, the inhibition at 3 µM at RORγt [2] (Jurkat) stood at 102%.

In the case of `COc1ccc2c(c1)CCN(C(=O)[C@@H](O)CCC(=O)O)[C@H]2C(=O)Nc1cc(F)c([Si](C)(C)C)c(F)c1` [Example 248, (4S)-5-((1R)-1-((3,5-difluoro-4-(trimethylsilyl)phenyl)carbamoyl)-6-methoxy-3,4-dihydroisoquinolin-2(1H)-yl)-4-hydroxy-5-oxopentanoic acid], the inhibition at 1 µM at RORγt [1] was found to be 87%; on RORγt [4], 101%. Further, the inhibition at 3 µM at RORγt [2] (Jurkat) came out at 100%.

As to `CCOc1ccc2c(c1)CCN(C(=O)NCCCC(=O)O)[C@H]2C(=O)Nc1cc(F)c([Si](C)(C)C)c(F)c1` [Example 238, 4-((((1R)-1-((3,5-difluoro-4-(trimethylsilyl)phenyl)carbamoyl)-6-ethoxy-3,4-dihydroisoquinolin-2(1H)-yl)carbonyl)amino)butanoic acid], the inhibition at 1 µM was determined as 92% on RORγt [1] and 101% on RORγt [4]. Besides, at RORγt [2] (Jurkat), the inhibition at 3 µM was 100%.

On to `C[Si](C)(C)c1c(F)cc(NC(=O)[C@H]2c3ccc4c(c3CCN2C(=O)CCCC(=O)O)OCO4)cc1F` [Example 254, 5-((6R)-6-((3,5-difluoro-4-(trimethylsilyl)phenyl)carbamoyl)-8,9-dihydro[1,3]dioxolo[4,5-f]isoquinolin-7(6H)-yl)-5-oxopentanoic acid], for which the inhibition at 1 µM on RORγt [1] came to 101%; on RORγt [4], 102%. Further, the inhibition at 3 µM at RORγt [2] (Jurkat) came out at 102%.

For the compound `C[Si](C)(C)c1ccc(NC(=O)[C@H]2c3ccc(OC(F)F)cc3CCN2C(=O)CCCC(=O)O)cc1F` [Example 194, 5-((1R)-6-(difluoromethoxy)-1-((3-fluoro-4-(trimethylsilyl)phenyl)carbamoyl)-3,4-dihydroisoquinolin-2(1H)-yl)-5-oxopentanoic acid], the inhibition at 1 µM was determined as 87% on RORγt [1] and 101% at RORγt [4]. The inhibition at 3 µM on RORγt [2] (Jurkat) turned out to be 100%.

Take `CCOc1ccc2c(c1)CCN(C(=O)CC(C)(O)CC(=O)O)[C@H]2C(=O)Nc1cc(F)c([Si](C)(C)C)c(F)c1` (stereo partly drawn) [Example 240, 5-((1R)-1-((3,5-difluoro-4-(trimethylsilyl)phenyl)carbamoyl)-6-ethoxy-3,4-dihydroisoquinolin-2(1H)-yl)-3-hydroxy-3-methyl-5-oxopentanoic acid]: the values for the inhibition at 1 µM at RORγt [1] and on RORγt [4] were 91% and 101%, respectively. In addition, the inhibition at 3 µM on RORγt [2] (Jurkat) stood at 101%.

Turning to `CCOc1ccc2c(c1)CCN(C(=O)CCCC(=O)O)[C@H]2C(=O)Nc1cc(F)c2c(c1)CCC2(C)C` [Example 182, 5-((1R)-6-ethoxy-1-((7-fluoro-1,1-dimethyl-2,3-dihydro-1H-inden-5-yl)carbamoyl)-3,4-dihydroisoquinolin-2(1H)-yl)-5-oxopentanoic acid], the inhibition at 1 µM at RORγt [1] stood at 67%; on RORγt [4], 101%. The inhibition at 3 µM on RORγt [2] (setting [5]) came out at 99%.

As for `CCOc1ccc2c(c1)CCN(C(=O)N1CC(CC(=O)O)C1)[C@H]2C(=O)Nc1cc(F)c([Si](C)(C)C)c(F)c1` [Example 231, (1-(((1R)-1-((3,5-difluoro-4-(trimethylsilyl)phenyl)carbamoyl)-6-ethoxy-3,4-dihydroisoquinolin-2(1H)-yl)carbonyl)azetidin-3-yl)acetic acid], the inhibition at 1 µM on RORγt [1] is 96%; on RORγt [4], 101%. The inhibition at 3 µM on RORγt [2] (Jurkat) turned out to be 101%.

Take `COc1ccc2c(c1)CCN(C(=O)NCCCC(=O)O)[C@H]2C(=O)Nc1cc(F)c([Si](C)(C)C)c(F)c1` [Example 242, 4-((((1R)-1-((3,5-difluoro-4-(trimethylsilyl)phenyl)carbamoyl)-6-methoxy-3,4-dihydroisoquinolin-2(1H)-yl)carbonyl)amino)butanoic acid]: the inhibition at 1 µM was 94% at RORγt [1] and 101% at RORγt [4]. In addition, at RORγt [2] (Jurkat), the inhibition at 3 µM was 101%.

As for `CCOc1ccc2c(c1)CCN(C(=O)CCCC(=O)O)[C@H]2C(=O)Nc1ccc([Si](C)(C)C)c(C#N)c1` [Example 221, 5-((1R)-1-((3-cyano-4-(trimethylsilyl)phenyl)carbamoyl)-6-ethoxy-3,4-dihydroisoquinolin-2(1H)-yl)-5-oxopentanoic acid], the inhibition at 1 µM at RORγt [1] stood at 97%; at RORγt [4], 102%. The inhibition at 3 µM at RORγt [2] (Jurkat) was 101%.
